Measured values taken from patent publication US20260365628A1, “SUBSTITUTED 3,4-DIHYDROQUINOLINONE INHIBITORS OF TSHR” (Septerna, Inc., priority 2022, published 2026).

Target: T1, hTSHR (Homo sapiens, UniProt P16473)
T1 construct: expressed in transfected cells
Experiment: hTSHR TR-FRET cAMP Assay (inhibition of M22-stimulated cAMP production)
Assay type: cell-based
Settings: Expi293F Inducible cells stably expressing hTSHR; cAMP HTRF; stimulated with EC80 of anti-TSHR antibody M22; 15 min compound preincubation, 30 min at 37° C.; read-out: Activity (IC50 bins)
Outline: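 Readout was a cAMP HTRF ratio of 655/620 nm after lysis, scaled between the EC80 M22 signal (0% inhibition) and no-agonist vehicle (100%). Frozen induced Expi293F-hTSHR cells saw test compounds (0.5% DMSO) for 15 min at 37 °C before 30 min of M22 stimulation at EC80.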

T1 sequence (P16473 21-764): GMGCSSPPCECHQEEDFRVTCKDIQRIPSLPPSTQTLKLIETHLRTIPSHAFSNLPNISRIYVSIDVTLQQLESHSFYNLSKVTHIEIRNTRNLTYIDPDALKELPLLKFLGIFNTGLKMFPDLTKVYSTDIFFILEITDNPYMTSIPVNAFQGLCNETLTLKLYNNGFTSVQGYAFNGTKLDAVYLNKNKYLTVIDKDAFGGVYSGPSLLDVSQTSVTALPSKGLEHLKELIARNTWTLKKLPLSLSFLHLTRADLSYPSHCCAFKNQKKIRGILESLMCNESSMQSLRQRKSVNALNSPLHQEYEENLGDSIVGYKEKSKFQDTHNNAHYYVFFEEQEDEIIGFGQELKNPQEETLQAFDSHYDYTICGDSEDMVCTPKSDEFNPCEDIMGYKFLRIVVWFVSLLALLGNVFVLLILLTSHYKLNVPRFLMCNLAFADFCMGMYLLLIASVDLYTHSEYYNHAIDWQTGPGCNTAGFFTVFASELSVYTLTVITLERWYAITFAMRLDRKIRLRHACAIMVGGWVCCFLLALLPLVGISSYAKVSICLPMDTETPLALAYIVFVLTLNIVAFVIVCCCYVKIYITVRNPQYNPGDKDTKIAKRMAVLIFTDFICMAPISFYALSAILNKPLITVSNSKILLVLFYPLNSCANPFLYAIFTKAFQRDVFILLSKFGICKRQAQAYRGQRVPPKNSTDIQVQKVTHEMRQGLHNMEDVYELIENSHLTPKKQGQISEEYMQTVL

SMILES | IC50
C[C@@H](c1cccc(OC(F)(F)F)c1)n1c(=O)cnc2c(CO)c(NC(=O)NC(C)(C)C)ccc21 [Example 351, (S)-1-(tert-butyl)-3-(5-(hydroxymethyl)-2-oxo-1-(1-(3-(trifluoromethoxy)phenyl)ethyl)-1,2-dihydroquinoxalin-6-yl)urea] | > 1000 nM
C[C@@H](c1cccc(OC(F)(F)F)c1)n1c(=O)cnc2cc(NC(=O)NC(C)(C)C)c(C#N)cc21 [Example 352, 3-tert-butyl-1-{7-cyano-2-oxo-1-[(1S)-1-[3-(trifluoromethoxy)phenyl]ethyl]quinoxalin-6-yl}urea] | 100 to 1000 nM
C[C@@H](c1cccc(OC(F)(F)F)c1)n1c(=O)cnc2c(F)c(NC(=O)NC(C)(C)C)ccc21 [Example 353, 3-tert-butyl-1-{5-fluoro-2-oxo-1-[(1S)-1-[3-(trifluoromethoxy)phenyl]ethyl]quinoxalin-6-yl}urea] | 100 to 1000 nM
C[C@H]1Oc2c(cc(C(F)(F)F)c(NC(=O)NC(C)(C)C)c2F)N(Cc2ccccc2)C1=O [Example 354, (R)-1-(4-benzyl-8-fluoro-2-methyl-3-oxo-6-(trifluoromethyl)-3,4-dihydro-2H-benzo[b][1,4]oxazin-7-yl)-3-(tert-butyl)urea] | 100 to 1000 nM
C[C@H]1Oc2nc(NC(=O)NC(C)(C)C)c(Cl)cc2N(Cc2ccccc2)C1=O [Example 355, 1-[(3R)-1-benzyl-7-chloro-3-methyl-2-oxo-3H-pyrido[2,3-b][1,4]oxazin-6-yl]-3-tert-butylurea] | 100 to 1000 nM
C[C@H]1Oc2c(cc(C(F)(F)F)c(NC(=O)NC(C)(C)C)c2F)N(Cc2cccc(C(F)F)c2)C1=O [Example 356, (R)-1-(tert-butyl)-3-(4-(3-(difluoromethyl)benzyl)-8-fluoro-2-methyl-3-oxo-6-(trifluoromethyl)-3,4-dihydro-2H-benzo[b][1,4]oxazin-7-yl)urea] | 100 to 1000 nM
C[C@@H](c1cccc(Cl)c1)n1c(=O)cnc2cc(NC(=O)NC(C)(C)C)c(F)cc21 [Example 357, (S)-1-(tert-butyl)-3-(1-(1-(3-chlorophenyl)ethyl)-7-fluoro-2-oxo-1,2-dihydroquinoxalin-6-yl) Urea] | 100 to 1000 nM
C[C@@H](c1cccc(Cl)c1)n1c(=O)cnc2cc(NC(=O)NC(C)(C)C)c(C(F)(F)F)cc21 [Example 358, 3-tert-butyl-1-{1-[(1S)-1-(3-chlorophenyl)ethyl]-2-oxo-7-(trifluoromethyl)quinoxalin-6-yl}urea] | 100 to 1000 nM
C[C@@H](c1ccccc1)n1c(=O)cnc2cc(NC(=O)NC(C)(C)C)c(CO)cc21 [Example 360, (S)-1-(tert-butyl)-3-(7-(hydroxymethyl)-2-oxo-1-(1-phenylethyl)-1,2-dihydroquinoxalin-6-yl)urea] | > 1000 nM
C[C@@H](c1cccc(Cl)c1)n1c(=O)cnc2cc(NC(=O)NC(C)(C)C)c(C#N)cc21 [Example 361, 3-tert-butyl-1-{1-[(1S)-1-(3-chlorophenyl)ethyl]-7-cyano-2-oxoquinoxalin-6-yl}urea] | 100 to 1000 nM
C[C@H]1Oc2nc(NC(=O)NC(C)(C)C)c(C#N)cc2N(Cc2ccccc2)C1=O [Example 362, 1-[(3R)-1-benzyl-7-cyano-3-methyl-2-oxo-3H-pyrido[2,3-b][1,4]oxazin-6-yl]-3-tert-butylurea] | 100 to 1000 nM
C[C@@H](c1cc(Cl)ccc1Cl)n1c(=O)cnc2cc(NC(=O)NC(C)(C)C)c(C#N)cc21 [Example 363, (S)-1-(tert-butyl)-3-(7-cyano-1-(1-(2,5-dichlorophenyl)ethyl)-2-oxo-1,2-dihydroquinoxalin-6-yl) urea] | 100 to 1000 nM
C[C@@H](c1cc(Cl)ccc1F)n1c(=O)cnc2cc(NC(=O)NC(C)(C)C)c(C#N)cc21 [Example 364, 3-tert-butyl-1-{1-[(1S)-1-(5-chloro-2-fluorophenyl)ethyl]-7-cyano-2-oxoquinoxalin-6-yl}urea] | 100 to 1000 nM
C[C@H]1Oc2cc(NC(=O)NC(C)(C)C)c(C#N)cc2N(Cc2cc(Cl)ccc2Cl)C1=O [Example 367, 3-tert-butyl-1-[(2R)-6-cyano-4-[(2,5-dichlorophenyl)methyl]-2-methyl-3-oxo-2H-1,4-benzoxazin-7-yl]urea] | 100 to 1000 nM
C[C@H]1Oc2cc(NC(=O)NC(C)(C)C)c(C#N)cc2N(Cc2cc(Cl)ccc2F)C1=O [Example 373, (R)-1-(tert-butyl)-3-(4-(5-chloro-2-fluorobenzyl)-6-cyano-2-methyl-3-oxo-3,4-dihydro-2H-benzo[b][1,4]oxazin-7-yl)urea] | 100 to 1000 nM
C[C@H]1Oc2nc(NC(=O)NC(C)(C)C)c(C(F)(F)F)cc2N(Cc2cccc(C(F)F)c2)C1=O [Example 374, (R)-1-(tert-butyl)-3-(1-(3-(difluoromethyl)benzyl)-3-methyl-2-oxo-7-(trifluoromethyl)-2,3-dihydro-1H-pyrido[2,3-b][1,4]oxazin-6-yl)urea] | < 100 nM
CC(c1cc(C(O)C(F)(F)F)ccc1F)n1c(=O)cnc2cc(NC(=O)NC(C)(C)C)ccc21 (stereo not shown) [Example 375, 1-(tert-butyl)-3-(1-(1-(2-fluoro-5-(2,2,2-trifluoro-1-hydroxyethyl)phenyl)ethyl)-2-oxo-1,2-dihydroquinoxalin-6-yl)urea] | > 1000 nM
C[C@H]1Oc2nc(NC(=O)NC(C)(C)C)c(C(F)(F)F)cc2N([C@@H](C)c2ccccc2)C1=O [Example 376, 1-(tert-butyl)-3-((R)-3-methyl-2-oxo-1-((S)-1-phenylethyl)-7-(trifluoromethyl)-2,3-dihydro-1H-pyrido[2,3-b][1,4]oxazin-6-yl)urea] | < 100 nM
C[C@@H](c1ccccc1)N1C(=O)CCc2nc(NC(=O)NC(C)(C)C)c(C(F)(F)F)cc21 [Example 377, (S)-1-(tert-butyl)-3-(6-oxo-5-(1-phenylethyl)-3-(trifluoromethyl)-5,6,7,8-tetrahydro-1,5-naphthyridin-2-yl)urea] | < 100 nM

Second part, the compound after the results:

IC50 | SMILES
< 100 nM | C[C@H]1Oc2cc(NC(=O)NC(C)(C)C)c(C(F)(F)F)cc2N([C@@H](C)c2ccccc2)C1=O [Example 349, 1-(tert-butyl)-3-((R)-2-methyl-3-oxo-4-((S)-1-phenylethyl)-6-(trifluoromethyl)-3,4-dihydro-2H-benzo[b][1,4]oxazin-7-yl)urea]
< 100 nM | C[C@@H](c1cccc(OC(F)(F)F)c1)n1c(=O)cnc2cc(NC(=O)OC3CCCC3)ccc21 [Example 359, cyclopentyl (S)-(2-oxo-1-(1-(3-(trifluoromethoxy)phenyl)ethyl)-1,2-dihydroquinoxalin-6-yl)carbamate]
< 100 nM | C[C@@H](c1cc(Cl)ccc1Cl)n1c(=O)cnc2cc(NC(=O)NC(C)(C)C)c(Cl)cc21 [Example 365, (S)-1-(tert-butyl)-3-(7-chloro-1-(1-(2,5-dichlorophenyl)ethyl)-2-oxo-1,2-dihydroquinoxalin-6-yl)urea]
< 100 nM | C[C@H]1Oc2cc(NC(=O)NC(C)(C)C)c(C#N)cc2N([C@@H](C)c2ccccc2)C1=O [Example 366, 1-(tert-butyl)-3-((R)-6-cyano-2-methyl-3-oxo-4-((S)-1-phenylethyl)-3,4-dihydro-2H-benzo[b][1,4]oxazin-7-yl)urea]
< 100 nM | C[C@H]1Oc2nc(NC(=O)NC(C)(C)C)c(C(F)(F)F)cc2N(Cc2ccccc2)C1=O [Example 368, (R)-1-(1-benzyl-3-methyl-2-oxo-7-(trifluoromethyl)-2,3-dihydro-1H-pyrido[2,3-b][1,4]oxazin-6-yl)-3-(tert-butyl)urea]
< 100 nM | C[C@H]1Oc2c(cc(C#N)c(NC(=O)NC(C)(C)C)c2F)N(Cc2ccccc2)C1=O [Example 369, (R)-1-(4-benzyl-6-cyano-8-fluoro-2-methyl-3-oxo-3,4-dihydro-2H-benzo[b][1,4]oxazin-7-yl)-3-(tert-butyl)urea]
< 100 nM | C[C@H]1Oc2c(cc(C#N)c(NC(=O)NC(C)(C)C)c2F)N(Cc2cccc(C(F)F)c2)C1=O [Example 370, (R)-1-(tert-butyl)-3-(6-cyano-4-(3-(difluoromethyl)benzyl)-8-fluoro-2-methyl-3-oxo-3,4-dihydro-2H-benzo[b][1,4]oxazin-7-yl)urea]
< 100 nM | C[C@H]1Oc2nc(NC(=O)NC(C)(C)C)c(C#N)cc2N(Cc2cccc(C(F)F)c2)C1=O [Example 371, (R)-1-(tert-butyl)-3-(7-cyano-1-(3-(difluoromethyl)benzyl)-3-methyl-2-oxo-2,3-dihydro-1H-pyrido[2,3-b][1,4]oxazin-6-yl)urea]
< 100 nM | C[C@@H](c1cc(Cl)ccc1F)n1c(=O)cnc2cc(NC(=O)NC(C)(C)C)c(Cl)cc21 [Example 372, (S)-1-(tert-butyl)-3-(7-chloro-1-(1-(5-chloro-2-fluorophenyl)ethyl)-2-oxo-1,2-dihydroquinoxalin-6-yl)urea]
